Assay results from publication PMC4144425, “Discovery of a novel iota carrageenan sulfatase isolated from the marine bacterium Pseudoalteromonas carrageenovora” (Frontiers in Chemistry, 2014).

Target: T1, Recombinant ι-CgsA (Pseudoalteromonas carrageenovora, UniProt A0A2K4X859)
T1 construct: gene PCARR_a1089; without signal peptide (cleavage Ala22/Gln23 predicted in the Q3IKL4 ortholog), N-terminal 6 His-tag, pFO4 vector, E. coli BL21(DE3); primers for cloning deduced from the P. haloplanktis TAC 125 gene
Test: methylumbelliferone release, absorbance at […] nm; hyperbolic regression
Format: biochemical
Settings: 35 °C, pH 8.3, 50 mM Tris-HCl, 200 mM NaCl; MUFS 5.2 to 206.5 μM; preliminary; read-out: Apparent Km

T1 sequence (A0A2K4X859 entry or part of it): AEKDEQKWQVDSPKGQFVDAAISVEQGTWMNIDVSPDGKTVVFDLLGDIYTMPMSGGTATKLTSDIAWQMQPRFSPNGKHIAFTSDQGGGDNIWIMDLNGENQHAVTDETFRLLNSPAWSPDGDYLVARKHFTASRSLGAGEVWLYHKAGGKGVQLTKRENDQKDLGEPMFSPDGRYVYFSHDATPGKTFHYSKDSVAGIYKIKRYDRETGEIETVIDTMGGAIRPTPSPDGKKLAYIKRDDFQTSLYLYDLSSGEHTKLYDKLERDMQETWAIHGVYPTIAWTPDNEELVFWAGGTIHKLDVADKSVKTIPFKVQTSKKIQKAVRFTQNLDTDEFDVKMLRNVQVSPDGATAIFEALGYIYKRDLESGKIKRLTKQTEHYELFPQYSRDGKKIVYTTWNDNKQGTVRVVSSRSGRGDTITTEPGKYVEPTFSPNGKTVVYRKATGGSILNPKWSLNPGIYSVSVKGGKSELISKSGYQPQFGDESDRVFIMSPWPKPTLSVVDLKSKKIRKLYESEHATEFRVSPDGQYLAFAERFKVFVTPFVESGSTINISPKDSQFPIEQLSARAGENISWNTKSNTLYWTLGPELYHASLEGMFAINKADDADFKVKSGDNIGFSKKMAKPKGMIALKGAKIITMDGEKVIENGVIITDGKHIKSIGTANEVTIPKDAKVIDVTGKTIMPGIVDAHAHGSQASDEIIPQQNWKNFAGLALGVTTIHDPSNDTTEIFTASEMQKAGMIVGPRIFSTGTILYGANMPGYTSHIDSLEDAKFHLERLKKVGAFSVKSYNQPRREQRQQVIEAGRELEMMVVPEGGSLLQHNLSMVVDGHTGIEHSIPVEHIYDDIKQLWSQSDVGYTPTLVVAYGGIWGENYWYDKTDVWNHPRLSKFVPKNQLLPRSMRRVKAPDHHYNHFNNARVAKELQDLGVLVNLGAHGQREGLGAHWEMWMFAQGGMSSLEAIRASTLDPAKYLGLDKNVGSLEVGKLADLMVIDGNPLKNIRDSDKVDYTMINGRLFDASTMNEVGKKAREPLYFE

## Cc1cc(=O)oc2cc(OS(=O)(=O)O)ccc12 [MUFS]
  Km: 13.4 ± 4.9 µM
